Measured values as given in patent US10561733B2, “Process for producing nanoparticles laden with active ingredient” (Merck Patent GmbH, priority 2012, dated 2020).

Test: Visual solubility in organic solvent on successive addition of water
Assay type: physicochemical
Conditions: 1 mg/100 μl in THF, ACN, acetone, DMSO, DMF, methanol, ethanol; 10 μl water added successively until precipitation
Procedure: If the active compound is insoluble in an organic solvent, this solvent is less suitable for the production of nanoparticles. If a clear solution is formed, in each case equal defined amounts of aqueous solvent are added stepwise and mixed in each case until precipitation of the active compound is visible after addition and mixing (visual solubility). The assessment of visual solubility is carried out visually in a suitable container, preferably in a glass tube having a small diameter, for example as are customary in gas chromatography (diameter of 0.5 cm, height 3 cm), under cold light, which preferably radiates upward, against a dark surface, preferably against a black surface, as background. A diagrammatic representation of the procedure is depicted in FIG. 1.
For loading experiments, the active compounds dexamethasone and 5-[2-(2-fluorophenyl)-1,8-naphthyridin-4-yl]-2,6-naphthyridin-1-ylamine (also called active compound B below) were used. For solvent selection, the active compounds were each dissolved in the following solvents with a concentration of 1 mg/100 μl: tetrahydrofuran (THF), acetonitrile (ACN), acetone, dimethyl sulfoxide (DMSO), dimethylformamide (DMF), methanol, ethanol. Additionally, 0.1% of trifluoroacetic acid (v/v) were added to each organic solution of active compound B in order to establish an apparent “pH”. […]

C[C@@H]1C[C@H]2[C@@H]3CCC4=CC(=O)C=C[C@]4(C)[C@@]3(F)[C@@H](O)C[C@]2(C)[C@@]1(O)C(=O)CO [dexamethasone]
visual solubility: increased visual solubility in tetrahydrofuran
